Measurements as given in US20100168167A1, “Piperidinones Useful in the Treatment of Inflammation” (priority 2007, published 2010).

Target: T1, PDE4 enzyme (U937 lysate or recombinant hPDE4)
T1 construct: cDNA containing PDE4D1 was cloned into a baculovirus vector, insect cells (SF9) were then infected and cells cultured to express the PDE4 protein
Assay: In vitro inhibition of PDE4, Method A ([3H]cAMP SPA enzyme assay)
Format: biochemical, human
Details: Biological Example 1, Method A
Description: PDE4 U937 cytoplasmic extracts were prepared by a modified procedure of the assay described in MacKenzie, S. J. and Houslay, M. D., “Action of rolipram on specific PDE4 cAMP phosphodiesterase isoforms and on the phosphorylation of cAMP-response-element-binding protein (CREB) and p38 mitogen-activated protein (MAP) kinase in U937 monocytic cells”, Biochem J. (2000), 347(Pt 2):571-8, by lysis of U937 cells (ATCC: Catalogue No. CRL-159) in M-PER Lysis buffer (Pierce) containing 10% protease inhibitor cocktail (Sigma). The cell lysates were then centrifuged at 30,000 rpm for 15 minutes at 4° C. The supernatants were aliquoted and stored at −80° C.
An alternative source of PDE4 enzymes was from recombinant human PDE4 obtained from baculovirus-SF9 cells expression system. cDNA containing PDE4D1 was cloned into a baculovirus vector, insect cells (SF9) were then infected and cells cultured to express the PDE4 protein. The cells were lysed and used directly in assay or partially purified using standard procedures. The process can be used for other PDE4 and PDE enzymes.
Compounds of the invention were evaluated for inhibitory activity against PDE4 enzymes by the following assay Method A or B.
PDE4 assay based on modified procedure of Phosphodiesterase [^3H]cAMP SPA Enzyme Assay (Amersham Biosciences, code TRKQ 7090). In this assay, PDE4 enzymes converts [^3H]cAMP to [^3H]5′-AMP. The assay is quenched by the addition of SPA yttrium silicate beads which preferentially bind linear nucleotides over cyclic nucleotides in the presence of zinc sulphate.
Reactions were performed in duplicate by the addition of 10 μl PDE4 enzyme (U937 lysate or recombinant hPDE4) to 20 μL of assay mix and 20 μL of test compounds in Isoplates (Wallac) for 30 minutes, at 37° C. The final assay mixture contained: 50 mM Tris (pH 7.5), 8.3 mM MgCl2, 1.7 mM EGTA and [^3H]cAMP (0.025 μCi) (Amersham). Assay was terminated by addition 25 μL SPA beads. The plate was sealed, shaken for 1 minute and then allowed to settle 30 minutes and the cpm determined using a Wallac Micobeta.

IC50 [nM] | SMILES
187 | COc1ccc([C@@H]2CCC(=O)N(C(=O)c3ccccc3)C2)cc1OC1CCCC1 [(S)-1-benzoyl-5-(3-(cyclopentyloxy)-4-methoxyphenyl)piperidin-2-one]
430 | COc1ccc([C@@H]2CCC(=O)N(Cc3ccccc3)C2)cc1OC1CCCC1 [(S)-1-benzyl-5-(3-(cyclopentyloxy)-4-methoxyphenyl)piperidin-2-one]
651 | C=CCC1(CC=C)C[C@@H](c2ccc(OC)c(OC3CCCC3)c2)CNC1=O [(S)-3,3-diallyl-5-(3-(cyclopentyloxy)-4-methoxyphenyl)piperidin-2-one]
146 | COc1ccc([C@@H]2CCC(=O)NC2)cc1-c1ccccc1 [(S)-5-(6-methoxybiphenyl-3-yl)piperidin-2-one]
389 | COc1ccc([C@H]2CNC(=O)/C(=C/c3cccc(C)c3)C2)cc1OC1CCCC1 [(S,E)-5-(3-(cyclopentyloxy)-4-methoxyphenyl)-3-(3-methylbenzylidene)piperidin-2-one]

The next lines start with the compound.

SMILES | IC50 [nM]
COc1ccc([C@H]2CNC(=O)C(CC(=O)Nc3cccnc3)C2)cc1OC1CCCC1 (stereo partly drawn) [2-((5S)-5-(3-(cyclopentyloxy)-4-methoxyphenyl)-2-oxopiperidin-3-yl)-N-(pyridin-3-yl)acetamide] | 456
COc1ccc([C@H]2CNC(=O)C(CC(=O)O)C2)cc1OC1CCCC1 (stereo partly drawn) [2-((5S)-5-(3-(cyclopentyloxy)-4-methoxyphenyl)-2-oxopiperidin-3-yl)acetic acid] | 1180
COc1ccc([C@H]2CNC(=O)[C@@H](CC3CCOC3)C2)cc1OC1CCCC1 (stereo partly drawn) [(3R,5S)-5-(3-(cyclopentyloxy)-4-methoxyphenyl)-3-((tetrahydrofuran-3-yl)methyl)piperidin-2-one] | 1490
COc1ccc2oc(C[C@H]3C[C@@H](c4ccc(OC)c(OC5CCCC5)c4)CNC3=O)cc2c1 [(3R,5S)-5-(3-cyclopentyloxy-4-methoxyphenyl)-3-(5-methoxy-2-benzofurylmethyl)piperidin-2-one] | 373
COc1ccc([C@H]2CNC(=O)[C@@H](Cc3nc4cc([N+](=O)[O-])ccc4o3)C2)cc1OC1CCCC1 [(3R,5S)-5-(3-cyclopentyloxy-4-methoxyphenyl)-3-(5-nitro-2-benzoxazolylmethyl)piperidin-2-one] | 653
COc1ccc([C@H]2CNC(=O)[C@H](Cc3cccnc3)C2)cc1OC1CCCC1 [(3S,5S)-5-(3-(cyclopentyloxy)-4-methoxyphenyl)-3-(3-pyridinylmethyl)piperidin-2-one] | 489
C=CCC1C[C@@H](c2ccc(OC)c(OC3CCCC3)c2)CNC1=O (stereo partly drawn) [(5S)-3-allyl-5-(3-(cyclopentyloxy)-4-methoxyphenyl)piperidin-2-one] | 290
COc1ccc([C@H]2CNC(=O)C(CC(O)CO)C2)cc1OC1CCCC1 (stereo partly drawn) [(5S)-5-(3-(cyclopentyloxy)-4-methoxyphenyl)-3-(2,3-dihydroxypropyl)piperidin-2-one] | 446
COc1ccc([C@H]2CNC(=O)C(CCNc3ccccc3)C2)cc1OC1CCCC1 (stereo partly drawn) [(5S)-5-(3-(cyclopentyloxy)-4-methoxyphenyl)-3-(2-(phenylamino)ethyl)piperidin-2-one] | 215
